# Assay results: patent publication US11998610B2, “Conjugates and methods of using the same” (Flagship Pioneering Innovations V, Inc., priority 2018, dated 2024)
# Assays:
# CT26.CL25 cells = assay: Cell viability readout (CellTiter-Glo) with bacteria-free media; type: cell-based, mouse; conditions: 10 nM compound, CT26.CL25 cells, 72 h, CellTiter-Glo
# Procedure: Example 100: Cell-Based Assay of Bacterial Enzymes with Mammalian CT26.CL25 Mouse Colorectal Carcinoma Viability Readout
# Bacteria-free media was incubated with the indicated test compound. ((R)—N1-(2-(methylamino)ethyl)-2-octanamidosuccinamide, a recognition element-linker conjugate lacking a payload, was serially diluted 1:1000 in DMSO and […] in medium+10% FBS to give a final concentration of 10 nM. Compound 35, Compound 76, Compound 77, Compound 78, Compound 79, and SN-38 were serially diluted 1:1000 in DMSO and 1:1000 in medium to give a final concentration of 10 nM, and then the bacteria-free supernatants were tested for their ability to kill mammalian cells. As an additional control, the test compound will also be incubated with bacteria-free media. The above steps can also be performed in the presence of E. coli (CFT073 ATCC 700928, Nissle 1917, or BL21 (DE3)) to effect cleavage of the conjugates of the application.
# On Day 1, CT26.CL25 cells (15,000 cells/well) were seeded in triplicate into a 24 well plate and incubated overnight in 100 μL of complete medium. The reactions (bacteria or media blank) was pelleted by centrifugation, and then the supernatant was passed through a 0.2 μm sterile filter to remove residual bacteria.
# On Day 2, 300 μL of a 10 nM solution of each compound in media were applied to separate wells of CT26.CL25 cells as prepared on Day 1. The cells were incubated at 37° C. for 72 h. After this point, viability was assessed using a CellTiter-Glo kit.
# Binning of the compounds was achieved by measuring cell growth or arrest (e.g. remaining cells are >90% viable, >80% viable, >70% viable, >60% viable, >50% viable, >40% viable, >30% viable, >20% viable, or >10% viable).
# E. coli Nissle 1917 = assay: Payload release in the presence of fecal matter, ClbP positive E. coli; type: cell-based; conditions: 10 μM compound, anaerobic, 37° C., 20 h, LCMS
# Excerpt: (§1) This example is representative of the methods described in Example 103. Fecal samples were subjected to metagenomic whole-genome shotgun sequencing followed by querying the dataset for the presence of the clbP gene or by attempting to amplify the gene with primers specific for it by qPCR. Samples that gave a signal below the detection limit were used in subsequent steps. The fecal sample was resuspended as a 15% (w/v) slurry in Anaerobic Phosphate Buffer Saline.
# (§2) Following steps 1 and 2 as detailed in Example 98, E. coli CFT073 ATCC 700928, E. coli Nissle 1917, or E. coli BL21(DE3) were grown in liquid culture.
# (§3) In an anaerobic chamber, the E. coli strains were added to the fecal samples obtained in step 1 at a dilution level calculated to represent 0, 1, 10, 50, 90, 99, or 100% of all organisms present in PRAS dilution blank on a 200 μL volume. The test compound (10 μM final concentration) was added to the mixture. The test compound was also added to a bacteria-free media control under similar conditions. The plate was sealed and incubated at 37° C. for 20 h. Under similar conditions, a standard curve of both the starting material and the payload compound was made in bacteria-free media.
# (§4) After 20 h, an aliquot was tested for breakdown and release of a payload by LCMS by diluting serially to a final dilution of 1:100 first with Acetonitrile (10× dilution) and then with (1:1) Mobile Phase A-0.1% Formic Acid in Water:Mobile Phase B-0.1% Formic acid in Acetonitrile (1 OX dilution), with absolute quantification compared to the external standard curve. In an ideal case, the amount of payload released in the reaction(s) with ClbP-encoding E. coli was >75% of the theoretical maximum, and none was released in the E. coli BL21(DE3) and media-alone conditions. In an acceptable case, the amount of payload released in the reaction(s) with ClbP-encoding E. coli was 25-75% of the theoretical maximum, and <25% of the theoretical maximum was released in the E. coli BL21(DE3) and media-alone conditions. In a non-preferred case, the amount of payload released in the reactions(s) with ClbP-encoding E. coli was <25% of the theoretical maximum, and >25% of the theoretical maximum was released in the E. coli BL21(DE3) and media-alone conditions.
# E. coli BL21(DE3) = assay: Payload release in the presence of fecal matter, ClbP negative E. coli; type: cell-based; conditions: 10 μM compound, anaerobic, 37° C., 20 h, LCMS
# Excerpt: as §1, §2, §3, §4
Compound,"Bacteria-free media (Luminescence, average of three runs) (CT26.CL25 cells)",% payload released in ClbP positive (Nissle 1917) at 1:1 ratio of E. coli to fecal bacteria (E. coli Nissle 1917),% payload released in ClbP negative (BL21 DE3) at 1:1 ratio of E. coli to fecal bacteria (E. coli BL21(DE3))
"CCCCCCCCCCCCCC(=O)N[C@H](CC(N)=O)C(=O)N[C@@H](C)CCC(=O)O[C@]1(CC)C(=O)OCc2c1cc1n(c2=O)Cc2c-1nc1ccc(O)cc1c2CC [Example 35, (S)-4,11-diethyl-9-hydroxy-3,14-dioxo-3,4,12,14-tetrahydro-1H-pyrano[3′,4′:6,7]indolizino[1,2-b]quinolin-4-yl (S)-4-((R)-4-amino-4-oxo-2-tetradecanamidobutanamido)pentanoate]",380490,0.9%,0.6%
"CCCCCCCC(=O)N[C@H](CC(N)=O)C(=O)NCCN(C)C(=O)Oc1ccc2c(C)cc(=O)oc2c1 [Example 70, 4-methyl-2-oxo-2H-chromen-7-yl (R)-(2-(4-amino-2-octanamido-4-oxobutanamido)ethyl)(methyl)carbamate]",–,25.1%,1.9%
